The values that follow come from patent publication US20060234945A1, “Ophthalmic therapeutic composition” (Nihon Tenganyaku Kenkyusho Co., LTD., priority 2002, published 2006).

One test concerns corneal epithelium. Kind of test: Action on corneal epithelium migration (in vitro), corneal organ culture system. It counts as cell-based, Japanese white rabbit. The conditions noted are these: rabbit corneal blocks incubated 20 hours in Medium-199 with test compound; FIG. 1, 51.2-512.3 nM; vs control. Here is the method:
(1) Action on Corneal Epithelium Migration (In Vitro)
Using the cornea of male Japanese white rabbits, the effects on corneal epithelium migration were examined using the migrating length of the corneal epithelium in a corneal organ culture system as an index in accordance with the method of Nishida et al. (J. Cell. Biol., 97, pp. 1653-1657 (1983)).
Corneal blocks (three per group) were cut out from rabbit corneal tissue. These corneal blocks were incubated for 20 hours under the conditions of 37° C. and 5% CO2 in a culture medium (Medium-199) containing the test compound. After incubation, the corneal blocks were fixed in a mixed solution of ethanol and glacial acetic acid (volume ratio of 95:5), embedded in paraffin, and prepared as sections. After deparaffination, the sections were stained with hematoxylin-eosin and the migrating length of the epithelial cell layer was measured under a microscope.

The test system of test [1] is rabbit corneal wound model. The test can be described thus: Corneal wound healing promotion action 1 (in vivo), approx. 6 mm corneal epithelial abrasion. On the set-up: species or system Japanese white rabbit. Here is the method: (2) Corneal Wound Healing Promotion Action 1 (In Vivo)
Using a male Japanese white rabbit, a wound of approximately 6 mm in diameter was produced in the cornea by inducing corneal epithelial abrasion in accordance with the method of Cintron et al. (Ophthalmic Res., 11, pp. 90-96 (1979)). The wound area was measured using the fluorescein-stained area as an index. The effects of the test compound on corneal wound healing were examined.
The eye drops containing the respective concentrations of the test compound were instilled (30 μl at a time) at 0, 3, 6, 9, 12, 18, 24, 27, 30, 33, 36, 42, and 48 hours after inducing corneal epithelial abrasion. In measuring the wound area, fluorescein staining was carried out and a photograph of the cornea was measured. The fluorescein-stained area of the photographed cornea was computed using an image analysis processing system.
In Tables 1 and 2, the respective values indicate the mean value±standard deviation (n=6). Statistical analysis was carried out using Dunnett's multiple comparison with respect to PBS with the area of the corneal wound portion immediately after (0 hours after) corneal epithelial abrasion being set to 100% (*p<0.05, ** p<0.01; vs. control).

Test [2] has as its system rabbit corneal wound model. Kind of test: Corneal wound healing promotion action 2 (in vivo), approx. 8 mm corneal epithelial abrasion. On the set-up: species or system Japanese white rabbit. Here is the method: (3) Corneal Wound Healing Promotion Action 2 (In Vivo)
Using the same method as (2) above, corneal epithelial abrasion was induced in a Japanese white rabbit to produce a wound of approximately 8 mm in diameter in the cornea. The wound area was measured using the fluorescein-stained area as an index to examine the effects on corneal wound healing.
The eye drops containing the respective concentrations of the test compound were instilled (25 μl at a time) at 0, 6, 12, 18, 24, 30, 36, 42, 48, and 54 hours after induction corneal epithelial abrasion. In measuring the wound area, fluorescein staining was carried out and a photograph of the cornea was measured. The fluorescein-stained area of the photographed cornea was computed using an image analysis processing system.
In Tables 3 and 4, the respective values indicate the mean value±standard deviation (n=6). Statistical analysis was carried out using Dunnett's multiple comparison with respect to physiological saline with the area of the corneal wound portion immediately after (0 hours after) corneal epithelial abrasion being set to 100% (*p<0.05, ** p<0.01; vs. control).

Consider “Ac-Pro-His-Ser-Arg-Asn-NH2 (Ac-PHSRN-NH2) [PHSRN (SEQ ID NO: 1)]”, for which the “migration of corneal epithelium (migrating length of epithelial cell layer)” value in the test with corneal epithelium is recorded as “significant promotion”. Further, the “Healing ratio (%)” value in test [1] (2 μM eye drop, 0 hr (baseline)) stood at 0%; in test [1] (2 μM eye drop, 6 hr), 9.66 ± 2.21%; in test [1] (2 μM eye drop, 12 hr), 26.71 ± 2.62%; in test [1] (2 μM eye drop, 24 hr), 61.91 ± 3.08%; in test [1] (2 μM eye drop, 36 hr) it was 88.08 ± 4.03%; in test [1] (2 μM eye drop, 48 hr) it was 99.14 ± 1.90%. The “Healing ratio (%)” value in test [1] (20 μM eye drop, 0 hr (baseline)) worked out at 0%; in test [1] (20 μM eye drop, 6 hr), 10.73 ± 3.21%; in test [1] (20 μM eye drop, 12 hr), 28.01 ± 1.92%; in test [1] (20 μM eye drop, 24 hr) it was 64.07 ± 3.98%; in test [1] (20 μM eye drop, 36 hr), 89.09 ± 6.42%; in test [1] (20 μM eye drop, 48 hr) it was 99.15 ± 1.52%. Further, the “Healing ratio (%)” value in test [1] (200 μM eye drop, 0 hr (baseline)) is listed as 0%; in test [1] (200 μM eye drop, 6 hr), 11.06 ± 3.50%; in test [1] (200 μM eye drop, 12 hr), 28.69 ± 4.10%; in test [1] (200 μM eye drop, 24 hr) it was 67.70 ± 5.37%; in test [1] (200 μM eye drop, 36 hr), 94.97 ± 4.63%; in test [1] (200 μM eye drop, 48 hr) it was 100.00 ± 0.00%. Moreover, the “Healing ratio (%)” value in test [1] (2000 μM eye drop, 0 hr (baseline)) is on record as 0%; in test [1] (2000 μM eye drop, 6 hr), 11.15 ± 1.25%; in test [1] (2000 μM eye drop, 12 hr), 28.99 ± 2.65%; in test [1] (2000 μM eye drop, 24 hr), 69.49 ± 3.17%; in test [1] (2000 μM eye drop, 36 hr), 95.39 ± 3.06%; in test [1] (2000 μM eye drop, 48 hr), 100.00 ± 0.00%. Moreover, the “Healing ratio (%)” value in test [2] (0.04% eye drop, 0 hr (baseline)) stood at 0%; in test [2] (0.04% eye drop, 12 hr) it was 13.57 ± 3.74%; in test [2] (0.04% eye drop, 18 hr), 29.45 ± 3.29%; in test [2] (0.04% eye drop, 24 hr), 58.71 ± 6.32%; in test [2] (0.04% eye drop, 30 hr), 58.71 ± 6.32%; in test [2] (0.04% eye drop, 36 hr) it was 70.29 ± 8.38%. Further, the “Healing ratio (%)” value in test [2] (0.04% eye drop, 48 hr) worked out at 88.27 ± 8.74%; in test [2] (0.04% eye drop, 54 hr), 94.24 ± 6.62%; in test [2] (0.04% eye drop, 72 hr), 98.93 ± 2.16%. The “promotion of wound healing” value was “significant promotion of wound healing” in test [1] (instillation of eye drops, 6 mm wound, vs PBS) and “significant promotion of wound healing” in test [2] (instillation of eye drops, 8 mm wound, vs physiological saline).
With hyaluronic acid [reference compound], the “Healing ratio (%)” value in test [2] (0.3% eye drop, 0 hr (baseline)) came to 0%; in test [2] (0.3% eye drop, 12 hr) it was 13.98 ± 4.88%; in test [2] (0.3% eye drop, 18 hr) it was 28.45 ± 3.37%; in test [2] (0.3% eye drop, 24 hr), 60.78 ± 8.07%; in test [2] (0.3% eye drop, 30 hr), 60.78 ± 8.07%; in test [2] (0.3% eye drop, 36 hr) it was 71.62 ± 11.02%. Further, the “Healing ratio (%)” value amounted to 90.19 ± 9.51% in test [2] (0.3% eye drop, 48 hr); 95.35 ± 6.44% in test [2] (0.3% eye drop, 54 hr); 99.92 ± 0.22% in test [2] (0.3% eye drop, 72 hr).
